Data published in patent US20210147801A1, “METHODS FOR INCREASING EXPANSION AND IMMUNOSUPPRESSIVE CAPACITY OF A POPULATION OF CD8+CD45RCLOW/- TREGS” (INSERM (INSTITUT NATIONAL DE LA SANTÉ ET DE LA RECHERCHE …, priority 2017, published 2021).

Assays:
Type in all cases: cell-based, human
CD8+CD45RClow/- Tregs [1] = experiment: Expansion of CD8+CD45RClow/- Tregs with anti-CD3/anti-CD28 in medium supplemented with immunosuppressive drugs (14 days); settings: rapamycin 45 ng/ml, methylprednisolone 500 pg/ml, mycophenolate mofetil 1 μg/ml; for expansion yield: Example 3, FIG. 3, cyclosporine A 45 ng/ml, tacrolimus 2 ng/ml, vs no IS drug
Procedure: CD8^+CD45RC^low/− Tregs from fresh or thawed PBMCs were seeded at 3×10^5/ml in RPMI1640 medium supplemented with 10% AB serum, Penicillin (100 U/ml), Streptomycin (0.1 mg/ml), Sodium pyruvate (1 mM), Glutamine (2 mM), Hepes Buffer (1 mM), non-essential amino acids (1×), IL-2 (1000 U/ml) and IL-15 (10 ng/ml), and were stimulated with coated anti-CD3 mAb (1 μg/ml), soluble anti-CD28 mAb (1 μg/ml) and/or allogeneic APCs at 1:4 Tregs: APCs ratio. At day 7, expanded cells were diluted at 1.5×10^5/ml and stimulated again with coated anti-CD3 and soluble anti-CD28 mAbs (1 μg/ml each). […] At day 14, expanded Tregs were washed with PBS before use. Suppressive activity was tested on CD8^+CD45RC^low/− Tregs expanded more than 10 fold in 7 days. For long-term expansion, CD8^+CD45RC^low/− Tregs and CD4^+CD25^highCD127^low/− Tregs were stimulated again with coated anti-CD3 (1 μg/ml) and soluble anti-CD28 MAbs (1 μg/ml) at days 14 and 21 and IL-2 and IL-15 cytokines were freshly added every 2 days from day 7 to 28. Culture medium 1× cytokines (IL-2 (1000 U/ml) and IL-15 (10 ng/ml)) was added when required.

CD8+CD45RClow/- Tregs [2] = experiment: Suppressive activity of drug-expanded Tregs on CD4+CD25- effector T cells stimulated with allogeneic APCs (CFSE); settings: for suppressive activity of Tregs: Example 3, FIG. 3, Tregs harvested at day 14, 1:1:1 Tregs:Teff:APCs, same drug concentrations, vs no IS drug
Procedure: CD8^+CD45RC^low/− Tregs from fresh or thawed PBMCs were seeded at 3×10^5/ml in RPMI1640 medium supplemented with 10% AB serum, Penicillin (100 U/ml), Streptomycin (0.1 mg/ml), Sodium pyruvate (1 mM), Glutamine (2 mM), Hepes Buffer (1 mM), non-essential amino acids (1×), IL-2 (1000 U/ml) and IL-15 (10 ng/ml), and were stimulated with coated anti-CD3 mAb (1 μg/ml), soluble anti-CD28 mAb (1 μg/ml) and/or allogeneic APCs at 1:4 Tregs: APCs ratio. At day 7, expanded cells were diluted at 1.5×10^5/ml and stimulated again with coated anti-CD3 and soluble anti-CD28 mAbs (1 μg/ml each). […] At day 14, expanded Tregs were washed with PBS before use. Suppressive activity was tested on CD8^+CD45RC^low/− Tregs expanded more than 10 fold in […]. For long-term expansion, CD8^+CD45RC^low/− Tregs and CD4^+CD25^highCD127^low/− Tregs were stimulated again with coated anti-CD3 (1 μg/ml) and soluble anti-CD28 MAbs (1 μg/ml) at days 14 and 21 and IL-2 and IL-15 cytokines were freshly added every 2 days from day 7 to 28. Culture medium 1× cytokines (IL-2 (1000 U/ml) and IL-15 (10 ng/ml)) was added when required.
We tested the effect of immunosuppressive drugs (at concentrations used in the clinic) on CD8^+CD45RC^low/− Tregs survival 7 days following the 14 days expansion (FIG. 1) or on the expansion yield and suppressive function score of CD8^+CD45RC^low/− Tregs during the 14 days expansion (FIG. 3D).
Methods: Fresh blood was taken from 1 healthy volunteer, PBMCs were isolated by Ficoll centrifugation, washed in PBS, adjusted at 2×10^8 PBMC/ml in PBS-FCS-EDTA and were incubated with anti-CD3-PeCy7, anti CD4-PerCPCy5.5 and anti-CD45RC FITC 30′ 4° C. Cells were washed with PBS-FCS-EDTA, filtered on 60 μm tissue, labeled with Dapi and FACS Aria sorted on lymphocyte morphology, exclusion of doublet cells, and DAPI-CD3^+CD4^−CD45RC^low/− expression. […] At days 10 and 12, cytokines were freshly added. Expanded Tregs were harvested at day 14 for suppressive activity assessment. […] After 5 days culture, Teff proliferation was analyzed by CFSE analysis in DAPI^−CD4±CD3^+ T cells.

CD8+CD45RClow/- Tregs [3] = experiment: Tregs associated markers expression at day 21 after 7 d culture in IS-supplemented medium; settings: Example 4, FIG. 4, tacrolimus 2 ng/ml, compared to drug free medium
Procedure: Methods: Fresh blood was taken from 1 healthy volunteer, PBMCs were isolated by Ficoll centrifugation, washed in PBS, adjusted at 2×10^8 PBMC/ml in PBS-FCS-EDTA and were incubated with anti-CD3-PeCy7, anti CD4-PerCPCy5.5 and anti-CD45RC FITC 30′ 4° C. Cells were washed with PBS-FCS-EDTA, filtered on 60 μm tissue, labeled with Dapi and FACS Aria sorted on lymphocyte morphology, exclusion of doublet cells, and DAPI-CD3^+CD4^−CD45RC^low/− expression. […] At days 7, Tregs were harvested, counted, washed, and plated at 5×10^5Tregs/well/3 ml in p6 plate previously coated with anti-CD3 (OKT3 clone, 1 μg/ml in PBS, 1 ml/well, 1 h at 37° C. then washed with PBS 3 times), in RPMI1640 medium supplemented with 10% AB serum, Penicillin (100 U/ml), Streptomycin (0.1 mg/ml), Sodium pyruvate (1 mM), Glutamine (2 mM), Hepes Buffer (1 mM), non-essential amino acids (1×), IL-2 (1000 U/ml) and IL-15 (10 ng/ml), anti-CD28 mAbs (clone CD28.2, soluble, 1 μg/ml). […] Tregs were analyzed at day 21 for survival/expansion yield and phenotype.

Compound	expansion yield (CD8+CD45RClow/- Tregs [1])	suppressive activity of Tregs (CD8+CD45RClow/- Tregs [2])	IFNg expression by Tregs (CD8+CD45RClow/- Tregs [3])	expansion fold (CD8+CD45RClow/- Tregs [1]; Example 1, FIG. 3D, drugs added alone during 14 days or subsequently (day 0-7, then day 7-14), vs no immunosuppressor (NT))	suppression capacity (CD8+CD45RClow/- Tregs [2]; Example 1, FIG. 3D, Tregs expanded 14 days with drugs alone or subsequently, vs no immunosuppressor (NT))
C=CC[C@@H]1/C=C(\C)C[C@H](C)C[C@H](OC)[C@H]2O[C@@](O)(C(=O)C(=O)N3CCCC[C@H]3C(=O)O[C@H](/C(C)=C/[C@@H]3CC[C@@H](O)[C@H](OC)C3)[C@H](C)[C@@H](O)CC1=O)[C@H](C)C[C@@H]2OC [Tacrolimus, tacrolimus]	improved	improved	significantly decreased	–	–
COc1c(C)c2c(c(O)c1C/C=C(\C)CCC(=O)OCCN1CCOCC1)C(=O)OC2 [mycophenolate mofetil]	deleterious	deleterious	–	inhibited the expansion by rapamycin	decreased suppression
